Values of other authors as cited in patent publication US20220249381A1, “COMPRESSED MACITENTAN COMPOSITIONS, METHODS AND USES THEREOF” (TECNIMEDE - SOCIEDADE TÉCNICO-MEDICINAL, SA, priority 2019, published 2022).

- solubility (BCS characterisation): low solubility
- solubility in organic solvents (methanol and ethanol): only slightly soluble
- solubility in aqueous solutions (room temperature, pH 1.2, 4, 6.8, 7, 9): insoluble
Compound: CCCNS(=O)(=O)Nc1ncnc(OCCOc2ncc(Br)cn2)c1-c1ccc(Br)cc1 [Macitentan, N-[5-(4-Bromophenyl)-6-[2-[(5-bromo-2-pyrimidinyl)oxy]ethoxy]-4-pyrimidinyl]-N′propylsulfamide]
